Laboratory results from patent publication US10618902B2, “Substituted pyrido[2,3-d]pyrimidines as inhibitors of protein kinases” (Celgene CAR LLC, priority 2013, dated 2020).
pIC50: −log10 of the molar value. Like-named read-outs stand apart in the source and are kept apart here.

Key:
FGFR4-WT = FGFR4-WT (Homo sapiens (Human), UniProt P22455); assay: Omnia assay for potency against FGFR4 enzyme; format: biochemical; details: method a: FGFR4-WT (Invitrogen) 10 nM, ATP 300 uM, Y10-Sox 10 uM
Protocol: A 10× stock solution of FGFR4-WT (PR4380C or P3054), (from Invitrogen, Carlsbad, Calif.) corresponding to method a in Table 10, was prepared as described below. Alternatively, a 10× stock solution of FGFR4-WT (F01-11G), (SignalChem, Richmond, BC) corresponding to method b in Table 10, was prepared as described below. A solution of 1.4×ATP (AS001A) and 5× Tyr-Sox conjugated peptide substrate (KNZ3101) were prepared in 1× kinase reaction buffer consisting of 20 mM Tris, pH 7.5, 5 mM MgCl2, 1 mM EGTA, 5 mM […], 5% glycerol (10× stock, KB002A) and 0.2 mM DTT (DS001A). […] The serially diluted compounds were prepared on a Tecan EVO100. A second addition of 10 μl of Tyr-Sox FGFR4 substrate was added to each well and the kinase reactions were started with the addition of 35 μL of 1.4×ATP. The reactions were monitored every 71 seconds for 240 minutes at λex360/λem485 in a Synergy plate reader from BioTek (Winooski, Vt.). […] Methods:
a) [FGFR4-WT]=10 nM, [ATP]=300 uM, [Y10-Sox]=10 uM (ATP KMapp−300 uM),

pFGFR4 (Huh7 cells) = pFGFR4 (Huh7 cells) (Homo sapiens (Human), UniProt P22455); assay: FGFR4 signaling (pFGFR4) in Huh7 cells (MSD); format: cell-based; details: read-out: Signaling EC50 (nM) pFGFR4 (Huh)
Huh7 cells = assay: Cell proliferation, Huh7 (CellTiter Glo); format: cell-based
Protocol: (§1) The growth inhibition (GI50) values were determined by Graph Pad Prism.

MDA-MB-453 cells = assay: Cell proliferation, MDA-MB-453 (CellTiter Glo); format: cell-based; details: Homo sapiens, 96 hr
Protocol: as §1

[1] = 120 hr, read-out: Cell Proliferation GI50 (nM) HUH

FGFR4-WT, sequence (P22455 22-802): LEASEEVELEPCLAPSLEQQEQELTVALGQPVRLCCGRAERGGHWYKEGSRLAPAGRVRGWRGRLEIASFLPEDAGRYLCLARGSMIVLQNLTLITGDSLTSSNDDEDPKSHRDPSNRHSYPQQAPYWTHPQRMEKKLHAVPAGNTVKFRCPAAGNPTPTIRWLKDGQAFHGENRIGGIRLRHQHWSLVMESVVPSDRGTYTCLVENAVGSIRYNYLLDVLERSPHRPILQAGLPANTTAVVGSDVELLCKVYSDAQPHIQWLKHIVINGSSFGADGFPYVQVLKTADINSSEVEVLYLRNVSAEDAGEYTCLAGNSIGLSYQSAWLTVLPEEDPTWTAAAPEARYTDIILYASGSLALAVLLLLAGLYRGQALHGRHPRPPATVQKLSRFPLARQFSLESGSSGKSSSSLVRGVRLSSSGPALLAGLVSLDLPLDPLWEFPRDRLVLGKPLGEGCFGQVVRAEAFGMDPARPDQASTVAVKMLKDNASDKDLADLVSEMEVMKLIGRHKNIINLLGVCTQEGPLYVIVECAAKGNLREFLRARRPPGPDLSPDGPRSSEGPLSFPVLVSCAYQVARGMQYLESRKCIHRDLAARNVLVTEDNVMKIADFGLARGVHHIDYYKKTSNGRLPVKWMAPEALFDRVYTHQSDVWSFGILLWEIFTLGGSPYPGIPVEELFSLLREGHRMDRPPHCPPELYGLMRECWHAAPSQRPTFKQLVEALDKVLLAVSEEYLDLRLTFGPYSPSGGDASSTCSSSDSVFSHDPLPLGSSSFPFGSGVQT
pFGFR4 (Huh7 cells), sequence (P22455 22-802): as above

Compound | pIC50 (FGFR4-WT) | EC50 (pFGFR4 (Huh7 cells)) [nM] | GI50 (Huh7 cells; [1]) [nM] | GI50 (Huh7 cells; Homo sapiens, Huh-7, 120 hr) [nM] | GI50 (MDA-MB-453 cells) [nM]
C=CC(=O)N[C@H]1COC[C@H]1Nc1ncc2cc(-c3c(Cl)c(OC)cc(OC)c3Cl)c(=O)nc-2n1C1CCOCC1 [Compound I-300] | > 7.00 | < 100 | – | – | –
C=CC(=O)N[C@H]1COC[C@H]1Nc1ncc2cc(-c3c(Cl)c(OC)cc(OC)c3Cl)c(=O)nc-2n1CCF [Compound I-304] | > 7.00 | < 100 | – | – | –
C=CC(=O)N[C@H]1COC[C@H]1Nc1ncc2cc(-c3c(Cl)c(OC)cc(OC)c3Cl)c(=O)nc-2n1CCO [Compound I-303] | > 7.00 | < 100 | 101 to 500 | – | –
C=CC(=O)NC1CS(=O)(=O)CC1Nc1ncc2cc(-c3c(Cl)c(OC)cc(OC)c3Cl)c(=O)n(C)c2n1 (centres unmarked) [Compound I-256] | > 7.00 | < 100 | – | – | –
C=CC(=O)NC1CN(c2ccccn2)CC1Nc1ncc2cc(-c3c(Cl)c(OC)cc(OC)c3Cl)c(=O)n(C)c2n1 (centres unmarked) [Compound I-252] | > 7.00 | < 100 | – | – | –
C=CC(=O)Nc1cc(F)c(F)cc1Nc1ncc2cc(-c3c(Cl)c(OC)cc(OC)c3Cl)c(=O)n(C)c2n1 [Compound I-257] | > 7.00 | < 100 | – | 101 to 500 | –
C=CS(=O)(=O)N[C@H]1CCC[C@H]1Nc1ncc2cc(-c3c(Cl)c(OC)cc(OC)c3Cl)c(=O)n(C)c2n1 [Compound I-253] | > 7.00 | < 100 | – | – | –
C=CC(=O)Nc1cc(-c2cnn(C)c2)ccc1Nc1ncc2cc(-c3c(Cl)c(OC)cc(OC)c3Cl)c(=O)n(C)c2n1 [Compound I-264] | > 7.00 | < 100 | – | – | –
C=CC(=O)N[C@H]1COC[C@H]1Nc1ncc2cc(-c3cc(OC)cc(OC)c3Cl)c(=O)nc-2n1C [Compound I-306] | > 7.00 | < 100 | – | – | –
C=CC(=O)N[C@H]1COC[C@H]1Nc1ncc2cc(-c3cc(C(=O)Nc4cccc(C(C)(C)C)c4)ccc3Cl)c(=O)n(C)c2n1 [Compound I-265] | > 7.00 | < 100 | – | – | –
C=CC(=O)N[C@H]1COC[C@H]1Nc1ncc2cc(-c3cc(OC)cc(OC)c3Cl)c(=O)n(CC3CCN(C(C)=O)C3)c2n1 (some centres unmarked) [Compound I-308] | > 7.00 | < 100 | 101 to 500 | – | –
C=CC(=O)N[C@H]1COC[C@H]1Nc1ncc2cc(-c3cc(OC)cc(OC)c3F)c(=O)n(C)c2n1 [Compound I-274] | > 7.00 | < 100 | – | – | –
C=CC(=O)NC1CC(O)CC1Nc1ncc2cc(-c3c(Cl)c(OC)cc(OC)c3Cl)c(=O)n(C)c2n1 (centres unmarked) [Compound I-284] | > 7.00 | 101 to 500 | – | – | –
C=CC(=O)N[C@@H]1CN(c2cc[nH]n2)C[C@@H]1Nc1ncc2cc(-c3c(Cl)c(OC)cc(OC)c3Cl)c(=O)n(C)c2n1 [Compound I-293] | 6.30 to 7.00 | 101 to 500 | – | – | –
C=CC(=O)N[C@H]1COC[C@H]1Nc1ncc2cc(-c3cc(OC)cc(OC)c3Cl)c(=O)nc-2n1C[C@H]1CCN(C(C)=O)C1 [Compound I-301] | > 7.00 | < 100 | < 100 | – | –
C=CC(=O)NC1CN(C)CC1Nc1ncc2c(n1)N(C)C(=O)N(c1c(Cl)c(OC)cc(OC)c1Cl)C2 (racemic) [Compound I-138] | 6.30 to 7.00 | – | – | – | –
C=CC(=O)N[C@H]1COC[C@H]1Nc1ncc2cc(-c3c(C)c(OC)cc(OC)c3C)c(=O)n(C)c2n1 [Compound I-294] | – | – | – | 101 to 500 | –
C=CC(=O)N[C@H]1COC[C@H]1Nc1ncc2cc(-c3c(Cl)c(OC)cc(OC)c3Cl)c(=O)n(C[C@@H]3CCN(C(C)=O)C3)c2n1 [Compound I-307] | > 7.00 | < 100 | – | 101 to 500 | –
C=CC(=O)N[C@H]1COC[C@H]1Nc1ncc2cc(-c3c(Cl)c(OC)cc(OC)c3Cl)c(=O)n(C(C)C)c2n1 [Compound I-296] | > 7.00 | < 100 | – | – | –

Compound | pIC50 (FGFR4-WT) | EC50 (pFGFR4 (Huh7 cells)) [nM] | GI50 (Huh7 cells; [1]) [nM] | GI50 (Huh7 cells; Homo sapiens, Huh-7, 120 hr) [nM] | GI50 (MDA-MB-453 cells) [nM]
C=CC(=O)Nc1nc(C)ccc1Nc1ncc2cc(-c3c(Cl)c(OC)cc(OC)c3Cl)c(=O)n(C)c2n1 [Compound I-278] | > 7.00 | < 100 | – | – | –
C=CC(=O)N[C@H]1COC[C@H]1Nc1ncc2cc(-c3c(Cl)c(OC)cc(OC)c3Cl)c(=O)[nH]c2n1 [Compound I-290] | > 7.00 | < 100 | – | < 100 | –
C=CC(=O)Nc1cc(-c2ccn(C)n2)ccc1Nc1ncc2cc(-c3c(Cl)c(OC)cc(OC)c3Cl)c(=O)n(C)c2n1 [Compound I-267] | > 7.00 | < 100 | – | – | –
C=CC(=O)NC1CN(C(C)=O)CC1Nc1ncc2c(n1)N(C)C(=O)N(c1c(Cl)c(OC)cc(OC)c1Cl)C2 (racemic) [Compound I-139] | > 7.00 | – | – | – | –
C=CC(=O)NC1CC(=O)CC1Nc1ncc2cc(-c3c(Cl)c(OC)cc(OC)c3Cl)c(=O)n(C)c2n1 (centres unmarked) [Compound I-286] | > 7.00 | < 100 | – | – | –
C=CC(=O)NC1CCCCC1Nc1ncc2c(n1)N(CCF)C(=O)N(c1c(Cl)c(OC)cc(OC)c1Cl)C2 (racemic) [Compound I-106] | 6.30 to 7.00 | – | – | – | –
C#CC(=O)N[C@H]1COC[C@H]1Nc1ncc2cc(-c3c(Cl)c(OC)cc(OC)c3Cl)c(=O)n(C)c2n1 [Compound I-251] | > 7.00 | < 100 | – | – | –
C=CC(=O)N[C@H]1COC[C@H]1Nc1ncc2cc(-c3c(Cl)c(OC)cc(OC)c3Cl)c(=O)n(CCOC)c2n1 [Compound I-295] | > 7.00 | < 100 | < 100 | – | –
C=CC(=O)N[C@H]1COC[C@H]1Nc1ncc2cc(-c3c(Cl)c(OC)cc(OC)c3Cl)c(=O)n(C)c2n1 [Compound I-241] | – | – | – | – | < 100
C=CC(=O)N[C@H]1COC[C@H]1Nc1ncc2cc(-c3c(Cl)c(OC)cc(OC)c3Cl)c(=O)nc-2n1CC1CCOC1 (some centres unmarked) [Compound I-298] | > 7.00 | < 100 | < 100 | – | –
C=CC(=O)N[C@H]1COC[C@H]1Nc1ncc2cc(-c3cc(OC)cc(OC)c3Cl)c(=O)n(C)c2n1 [Compound I-254] | – | – | 101 to 500 | – | –
C=CC(=O)NC1CC(F)(F)CC1Nc1ncc2cc(-c3c(Cl)c(OC)cc(OC)c3Cl)c(=O)n(C)c2n1 (centres unmarked) [Compound I-288] | > 7.00 | < 100 | – | – | –
C=CC(=O)Nc1ccc(C(F)(F)F)cc1Nc1ncc2cc(-c3c(Cl)c(OC)cc(OC)c3Cl)c(=O)n(C)c2n1 [Compound I-258] | > 7.00 | < 100 | – | – | –
C=CC(=O)N[C@H]1COC[C@H]1Nc1ncc2cc(-c3c(Cl)c(OC)cc(OC)c3Cl)c(=O)nc-2n1C[C@H]1CCN(C(C)=O)C1 [Compound I-299] | > 7.00 | < 100 | 101 to 500 | – | –
C=CC(=O)N[C@H]1CN(c2cc[nH]n2)C[C@H]1Nc1ncc2cc(-c3c(Cl)c(OC)cc(OC)c3Cl)c(=O)n(C)c2n1 [Compound I-292] | > 7.00 | < 100 | – | < 100 | –
C=CC(=O)N[C@H]1COC[C@H]1Nc1ncc2cc(-c3c(Cl)c(OC)cc(OCC)c3Cl)c(=O)n(C)c2n1 [Compound I-291] | > 7.00 | < 100 | < 100 | – | –
C=CC(=O)Nc1c(Nc2ncc3cc(-c4c(Cl)c(OC)cc(OC)c4Cl)c(=O)n(C)c3n2)ccc(F)c1F [Compound I-282] | > 7.00 | 101 to 500 | – | – | –
C=CC(=O)NC1CN(c2ccn(C)n2)CC1Nc1ncc2cc(-c3c(Cl)c(OC)cc(OC)c3Cl)c(=O)n(C)c2n1 (centres unmarked) [Compound I-248] | > 7.00 | < 100 | – | < 100 | –
C=CC(=O)Nc1cccc(F)c1Nc1ncc2cc(-c3c(Cl)c(OC)cc(OC)c3Cl)c(=O)n(C)c2n1 [Compound I-259] | > 7.00 | < 100 | – | 101 to 500 | –
